# Measured values as given in patent publication US20070049564A1 (Wyeth, priority 2005, published 2007).
# Read-outs that look alike come from different tables or passages of the source.
# What was measured:
# E. coli GC 2235 = experiment: MIC, broth microdilution
# Staph. = experiment: Range of MIC for Staph. strains, including MRSA; details: Staphylococcus aureus, MRSA
# E. coli GC 2236 = experiment: MIC, broth microdilution
# P. aeruginosa GC 2214 = experiment: MIC, broth microdilution
# S. aureus GC 4536 = experiment: MIC, broth microdilution
# E. faecalis GC 2242 = experiment: MIC, broth microdilution
# E. coli = experiment: Range of MIC for E. coli strains; details: Escherichia coli
# S. agalactiae GC 4564 = experiment: MIC, broth microdilution
# S. aureus GC 6469 = experiment: MIC, broth microdilution
# E. faecalis GC 4555 = experiment: MIC, broth microdilution; details: Enterococcus faecalis
# E. faecalis GC 2265 = experiment: MIC, broth microdilution
# E. coli GC 1073 = experiment: MIC, broth microdilution
# Method: (§1) Antimicrobial susceptibility testing. The in vitro activities of the antibiotics are determined by the broth microdilution method as recommended by the National Committee for Clinical Laboratory Standards (NCCLS) (1). Mueller-Hinton II broth (MHBII)(BBL Cockeysville, Md.) is the medium employed in the testing procedures. Microtiter plates containing serial dilutions of each antimicrobial agent are inoculated with each organism to yield the appropriate density (10^5 CFU/ml) in a 100 μl final volume. The plates are incubated for 18-22 hours at 35° C. in ambient air.
# (§2) Representative compounds were first incubated in mouse serum for an hour prior to the in vitro testing against a panel of selected gram-positive and gram-negative bacteria strains. All compounds were also pre-incubated in water for an hour prior to testing as control. Representative compounds of Formula I were incubated in human serum prior to MIC determination.
# S. aureus GC 6467 = experiment: MIC, broth microdilution
# E. coli GC 2203 = experiment: MIC, broth microdilution
# E. coli GC 2270 = experiment: MIC, broth microdilution; details: Escherichia coli, GC2270, pre-incubation in mouse serum
# Method: as §1, §2
structure (smiles),measurement,setting,value
"CCCCN(CC(=O)Nc1cc(N(C)C)c2c(c1O)C(=O)C1=C(O)[C@]3(O)C(=O)C(C(N)=O)=C(O)[C@@H](N(C)C)C3CC1C2)C(=O)OCc1oc(=O)oc1C (stereo partly drawn) [Example 109, (5-methyl-2-oxo-1,3-dioxol-4-yl)methyl 2-{[(7S,10aS)-9-(aminocarbonyl)-4,7-bis(dimethylamino)-1,8,10a,11-tetrahydroxy-10,12-dioxo-5,5a,6,6a,7,10,10a,12-octahydrotetracen-2-yl]amino}-2-oxoethyl(butyl)carbamate]",MIC,"E. coli GC 2235; Escherichia coli, GC2235, pre-incubation in mouse serum",0.25 µg/mL
same,MIC,"E. coli GC 2235; Escherichia coli, GC2235, pre-incubation in water",0.5 µg/mL
same,MIC,E. coli GC 2235; pre-incubation in mouse serum,0.50 UG/ML
same,MIC,E. coli GC 2235; pre-incubation in water,1 UG/ML
same,MIC,"Staph.; read-out: Range of MIC, Staph (Mouse Serum)",0.5 to 2 µg/mL
same,MIC,"Staph.; read-out: Range of MIC, Staph (Water)",4 to 8 µg/mL
same,MIC,"E. coli GC 2236; Escherichia coli, GC2236, pre-incubation in mouse serum",0.5 µg/mL
same,MIC,"E. coli GC 2236; Escherichia coli, GC2236, pre-incubation in water",1 µg/mL
same,MIC,E. coli GC 2236; pre-incubation in water,2 UG/ML
same,MIC,"P. aeruginosa GC 2214; Pseudomonas aeruginosa, GC2214, pre-incubation in mouse serum",16 µg/mL
same,MIC,"P. aeruginosa GC 2214; Pseudomonas aeruginosa, GC2214, pre-incubation in water",> 64 µg/mL
same,MIC,P. aeruginosa GC 2214; pre-incubation in mouse serum,32 UG/ML
same,MIC,"S. aureus GC 4536; Staphylococcus aureus, GC4536, pre-incubation in mouse serum",1 µg/mL
same,MIC,"S. aureus GC 4536; Staphylococcus aureus, GC4536, pre-incubation in water",2 µg/mL
same,MIC,S. aureus GC 4536; pre-incubation in water,4 UG/ML
same,MIC,"E. faecalis GC 2242; Enterococcus faecalis, GC2242, pre-incubation in mouse serum",1 µg/mL
same,MIC,"E. faecalis GC 2242; Enterococcus faecalis, GC2242, pre-incubation in water",1 µg/mL
same,MIC,E. faecalis GC 2242; pre-incubation in water,2 UG/ML
same,MIC,"E. coli; 20 h, read-out: Range of MIC, E. coli (Mouse Serum)",0.25 to 1 µg/mL
same,MIC,"E. coli; read-out: Range of MIC, E. coli (Water)",1 to 4 µg/mL
same,MIC,"S. agalactiae GC 4564; Streptococcus agalactiae, GC4564, pre-incubation in mouse serum",0.12 µg/mL
same,MIC,"S. agalactiae GC 4564; Streptococcus agalactiae, GC4564, pre-incubation in water",0.25 µg/mL
same,MIC,S. agalactiae GC 4564; pre-incubation in mouse serum,<0.06 UG/ML
same,MIC,"S. aureus GC 6469; Staphylococcus aureus, GC6469, pre-incubation in mouse serum",1 µg/mL
same,MIC,S. aureus GC 6469; pre-incubation in mouse serum,2 UG/ML
same,MIC,"E. faecalis GC 4555; GC4555, pre-incubation in mouse serum",0.5 µg/mL
same,MIC,"E. faecalis GC 4555; GC4555, pre-incubation in water",1 µg/mL
same,MIC,"E. faecalis GC 2265; Enterococcus faecalis, GC2265, pre-incubation in mouse serum",1 µg/mL
same,MIC,"E. faecalis GC 2265; Enterococcus faecalis, GC2265, pre-incubation in water",2 µg/mL
same,MIC,E. faecalis GC 2265; pre-incubation in water,4 UG/ML
same,MIC,"E. coli GC 1073; Escherichia coli, GC1073, pre-incubation in mouse serum",0.5 µg/mL
same,MIC,E. coli GC 1073; pre-incubation in mouse serum,1 UG/ML
same,MIC,"S. aureus GC 6467; Staphylococcus aureus, GC6467, pre-incubation in mouse serum",2 µg/mL
same,MIC,"S. aureus GC 6467; Staphylococcus aureus, GC6467, pre-incubation in water",4 µg/mL
same,MIC,S. aureus GC 6467; pre-incubation in water,8 UG/ML
same,MIC,"E. coli GC 2203; Escherichia coli, GC2203, pre-incubation in mouse serum",0.5 µg/mL
same,MIC,"E. coli GC 2203; Escherichia coli, GC2203, pre-incubation in water",1 µg/mL
same,MIC,E. coli GC 2203; pre-incubation in water,2 UG/ML
same,MIC,E. coli GC 2270,0.25 µg/mL
